Results on 74 compounds are retold here after PubChem BioAssay AID1996.

≈ marks a conversion by molar mass, not a printed value.

The conditions of this data set: buffer; pH 7.4; 200.0 µM.
The kinetic solubility is the concentration staying in solution when a stock, usually in DMSO, is diluted into the medium. `Cl.NC(=NCCc1ccccc1)NC(=O)c1cc(Cl)ccc1O` displayed a kinetic solubility of 10.6 µg/mL.
As to `O=Cc1c(Cl)nc2ccccn2c1=O`, the kinetic solubility was more than 31.3 µg/mL.
On to `COc1cccc(NC(=O)CC(=O)c2ccccc2)c1`, for which the solubility (kinetic) is more than 40.4 µg/mL.
In turn, `N#C/C(=C\c1ccco1)C(=O)Nc1ccc(S(N)(=O)=O)cc1` yielded a kinetic solubility of 3.5 µg/mL (≈ 11 µM).
With `CCCCc1nnc(NC(=O)C(=O)OCC)s1` the figure was more than 38.6 µg/mL.
With `Cc1ccccc1C(=O)OC(C)CN1CCN(C)CC1.Cl` (centres undefined) the figure was more than 46.9 µg/mL.
With `CCc1ccc(NC(=S)N2CCCCCCC2)cc1` the figure was 35.1 µg/mL (≈ 127 µM); with `CCCN1CCC(NC(=O)Cc2ccccc2OC)CC1`, 43.5 µg/mL (≈ 150 µM); with `CCc1nc(N)nc(N)c1-c1ccc(Cl)cc1`, more than 37.3 µg/mL.
In turn, `O=C(Nc1ccccc1N1CCOCC1)C1CCCO1` (centres undefined) had a solubility (kinetic) of more than 41.5 µg/mL.
In turn, `CC1(C)C2CCC1(C)C(OC(=O)CNc1ccccc1)C2` (centres undefined) registered a kinetic solubility of 4.2 µg/mL (≈ 14.6 µM).
With `O=C(O)c1ccc(Cn2cnc3cccnc32)cc1` the figure was more than 38 µg/mL.
With `CSCCC(=O)N1CCN(CC(=O)N2CCCC2)CC1` the figure was more than 44.9 µg/mL; with `Cc1ccc2c(CN3CCCCC3)cc(=O)oc2c1C`, 22.6 µg/mL (≈ 83.3 µM); with `CCN1CCN(c2nc(-c3ccc(F)cc3)cc(=O)[nH]2)CC1`, more than 45.4 µg/mL.
As to `CC1SC(C)C(=O)N(CC(=O)Nc2ccc([N+](=O)[O-])cc2)C1=O` (centres undefined), the kinetic solubility amounted to 45.7 µg/mL (≈ 135 µM).
With `Cc1cc(C)c(S(=O)(=O)c2ccc(F)cc2C)c(Cl)n1` the figure was 36.8 µg/mL (≈ 117 µM).
In turn, `Cc1ccc2oc(=O)n(Cc3ccc(OC(C)C)cc3)c2c1` gave a kinetic solubility of 1 µg/mL (≈ 3.36 µM).
`Cc1nc(Nc2ccccc2)c2oc3ccc(Cl)cc3c2n1` returned a solubility (kinetic) of less than 0.2 µg/mL.
`O=[N+]([O-])c1cccc(CN2CC=C(c3ccc(F)cc3)CC2)c1` had a kinetic solubility of 3.3 µg/mL (≈ 10.6 µM).
With `COc1ccc(C(C)NC(=O)C23CC4CC(CC(C4)C2)C3)cc1` (centres undefined) the figure was 0.8 µg/mL (≈ 2.55 µM).
Compound `COc1ccc(-c2nc3n(c2C)Cc2ccccc2-3)cc1` showed a kinetic solubility of 16.3 µg/mL (≈ 59 µM).
With `COc1ccc(CCC(C)N(C)Cc2ccccc2)cc1` (centres undefined) the figure was 34.9 µg/mL (≈ 123 µM); with `CC1(C)CC(=O)C2=C(C1)NC(=S)C(C#N)C21CCCCC1` (centres undefined), more than 45.4 µg/mL; with `COc1ccc(OCCN2C(=O)c3cccc(N)c3C2=O)cc1`, 1.1 µg/mL (≈ 3.52 µM).
`C[n+]1ccn(CC(=O)c2cccs2)c1.[Br-]`: the solubility (kinetic) was determined as 39 µg/mL.
With `CCOc1cc(C2NC(=O)c3ccccc3O2)ccc1OC` (centres undefined) the figure was 8.6 µg/mL (≈ 28.7 µM); with `COc1ccccc1CNS(=O)(=O)c1cc(C(=O)NCC2CCCO2)c(Cl)cc1Cl` (centres undefined), more than 71 µg/mL.
With `Cc1c(Cl)cccc1NC(=O)Nc1cc(C(C)(C)C)on1` the figure was less than 0.2 µg/mL.
With `Cc1ccc(-c2nc(N)sc2-c2ccc(C)cc2)cc1` the figure was 0.5 µg/mL (≈ 1.78 µM); with `CN1C(=O)C(=Cc2ccc(N3CCCCCC3)cc2)C(=O)N(C)C1=O`, 7 µg/mL (≈ 20.5 µM); with `CC(=O)Nc1ccc(C(=O)OCCc2ccccc2)cc1`, 38.8 µg/mL (≈ 137 µM).
On to `CCCS(=O)(=O)c1csc(C(=O)OC)c1N`, for which the solubility (kinetic) amounted to 28.7 µg/mL (≈ 109 µM). This solubility kinetic and that of the compound before are within 1.5-fold of each other.
With `COc1ccc(CNC/C=C/c2ccccc2)cc1.Cl` the figure was more than 43.5 µg/mL; with `CCCCNC(=O)N1CCCN(c2ccc(C#N)cn2)CC1`, more than 45.2 µg/mL; with `CN(C)CCN=Cc1c(O)n(Cc2ccc3c(c2)OCO3)c(=S)[nH]c1=O`, 55.8 µg/mL (≈ 148 µM).
Consider `CCCCNC(=O)C1CCC(CNc2nc(=S)[nH]c3ccccc23)CC1` (centres undefined), for which the kinetic solubility came out at 2.6 µg/mL (≈ 6.98 µM).
With `CC(C)(C)C(=O)Nc1nc2cc3c(cc2s1)OCO3` the figure was 0.6 µg/mL (≈ 2.16 µM); with `COc1ccc(NC(=O)CCN2C(=O)c3ccccc3C2=O)c(OC)c1`, 21.8 µg/mL (≈ 61.5 µM).
With `CC(NS(=O)(=O)c1ccc2ccccc2c1)c1ccccn1.Cl` (centres undefined) the figure was more than 52.3 µg/mL; with `Cc1cccc(NC(=O)NCc2ccc3c(c2)OCO3)c1`, 1.6 µg/mL (≈ 5.63 µM); with `CC(=O)Nc1ccc2c(c1)nc(C)n2-c1ccccc1`, more than 39.8 µg/mL.
The compound `CC(=O)Nc1ccc2nc(-c3ccco3)[nH]c2c1` came in with a kinetic solubility of more than 36.2 µg/mL.
With `CC1CCCCC1NC(=S)NC(=O)c1cccs1` (centres undefined) the figure was 5.5 µg/mL (≈ 19.5 µM); with `O=C(/C=C/c1cccc(O)c1)c1ccc(N2CCOCC2)cc1`, 23.2 µg/mL (≈ 75 µM); with `CCCN(CCC)CC(O)Cn1c2ccccc2c2ccccc21` (centres undefined), 12.5 µg/mL (≈ 38.5 µM).
`CC1CN(C(=O)COC(=O)c2cc(Cl)ccc2Cl)CC(C)O1` (centres undefined) came in with a kinetic solubility of more than 51.9 µg/mL.
For `COc1ccc(C(=O)CCC(=O)Nc2cccc(Cl)c2)cc1`, the solubility (kinetic) was 3.4 µg/mL (≈ 10.7 µM).
With `N#CC1(N2CCN(C(=O)c3ccccc3)CC2)CCCCC1` the figure was 35.9 µg/mL (≈ 121 µM); with `CCN(C(=O)CN1CCCC(C)C1)c1c(N)n(Cc2ccccc2)c(=O)[nH]c1=O` (centres undefined), more than 59.9 µg/mL; with `O=C(Nc1cccc(Cl)c1)c1cncn1-c1ccc(F)cc1`, 45.4 µg/mL (≈ 144 µM).
With `Cc1ccc(N2C(=O)CC(Sc3nc(C)cc(C)n3)C2=O)cc1` (centres undefined) the figure was 34.7 µg/mL (≈ 106 µM).
With `O=C(NC1CCCC1)C1CCN(C(=O)NCc2ccccc2)CC1` the figure was more than 49.4 µg/mL.
As to `O=C(COC(=O)c1ccccc1O)NC(c1ccccc1)c1ccccc1`, the kinetic solubility worked out at 5.9 µg/mL (≈ 16.3 µM).
The compound `O=S(=O)(Nc1nccs1)c1ccc(NS(=O)(=O)c2c(F)cc(F)c(Cl)c2F)cc1` displayed a solubility (kinetic) of more than 72.6 µg/mL.
Compound `CCOC(=O)Cc1csc(NC(=O)CN2CCCCC2)n1` came in with a kinetic solubility of 41.6 µg/mL (≈ 134 µM).
In the case of `O=C(c1ccccc1)N1CCCC(C(=O)N2CCN(c3ccccc3)CC2)C1` (centres undefined), the solubility (kinetic) is 46.8 µg/mL (≈ 124 µM).
With `COc1cc2c(cc1OC)CN(CC(=O)Nc1cccc([N+](=O)[O-])c1)CC2` the figure was 14.9 µg/mL (≈ 40.1 µM); with `CC(C(=O)N1CCN=C1c1ccccc1)N1C(=O)c2ccccc2C1=O` (centres undefined), more than 52.1 µg/mL; with `CCOc1ccccc1NC(=O)NC1CCCCCCC1`, 0.4 µg/mL (≈ 1.38 µM).
With `CN1c2ccccc2C(=O)/C(=C\Nc2ncccn2)S1(=O)=O` the figure was 2.8 µg/mL (≈ 8.85 µM); with `N#Cc1ccccc1NC(=O)CSc1ccc([N+](=O)[O-])cn1`, 0.7 µg/mL (≈ 2.23 µM); with `COc1ccc(C(CNS(=O)(=O)c2ccc(NC(C)=O)c(OC)c2)N2CCCC2)cc1.Cl` (centres undefined), more than 72.6 µg/mL.
For the compound `O=S(=O)(c1ccc2ccccc2c1)N1CCNCC1`, the solubility (kinetic) was found to be 32.7 µg/mL (≈ 118 µM).
`CN(C)c1cccc(C(=O)OCC(=O)NC(=O)NCc2ccccc2)c1` showed a kinetic solubility of 2.6 µg/mL (≈ 7.32 µM).
With `O=C(Nc1ccc2c(c1)OCO2)C1CC1(Cl)Cl` (centres undefined) the figure was more than 41.1 µg/mL; with `Cc1c(Cl)c(=O)oc2cc(OCC(=O)N3CCCC(C)C3)ccc12` (centres undefined), 38 µg/mL (≈ 109 µM); with `CN(C)/C=C(\C#N)S(=O)(=O)c1ccc(Cl)cc1`, 37.7 µg/mL (≈ 139 µM).
With `COc1cc(N2CCCC2)c(OC)cc1C=O` the figure was more than 35.3 µg/mL; with `COc1ccc(Nc2ccc([N+](=O)[O-])cn2)cc1`, 3 µg/mL (≈ 12.2 µM).
Turning to `O=C(NC1=NCCS1)c1ccc(Cl)cc1`, the solubility (kinetic) is 11.5 µg/mL (≈ 47.8 µM).
With `O=c1c2ccccc2[nH]c2ccc(O)cc12` the figure was more than 31.7 µg/mL; with `Cc1ccc(NC(=O)COC(=O)C2CCC2)cc1S(=O)(=O)N1CCOCC1`, more than 59.5 µg/mL; with `Cc1ccc(S(=O)(=O)N(C)c2ccc(OC(=O)c3cc(=O)[nH]c4ccccc34)cc2)cc1`, 2.7 µg/mL (≈ 6.02 µM).
